Measured values as given in patent publication US20080312169A1, “Cosmetic use of D-ribose” (priority 2007, published 2008).

Key:
[1] = system: normal human dermal fibroblasts (NHDF); experiment: Oxygen consumption (mitochondrial and cytoplasmic respiration) of NHDF in culture, BD Oxygen Biosensor System; format: cell-based; settings: 0.05% D-ribose, two hours of contact, six wells
Description: The inventors measured the effect of D-ribose on mitochondrial and cytoplasmic respiration of normal human dermal fibroblasts (NHDF) in culture. The cells were cultivated at 37° C. under an atmosphere of 5% CO2, in a culture solution of DMEM supplemented with 10% bovine fetal serum. […] Thus, D-ribose augments the consumption of oxygen in the cells, and consequently, the metabolism of cutaneous cells and tissues.

[2] = system: NHDF; experiment: ATP production by NHDF in culture under conditions of hypoxia; format: cell-based, human; settings: 0.05% D-ribose, 24 h pretreatment, after six hours of severe hypoxia (oxygen<2%)
Description: The inventors have measured the effect of D-ribose on the production of ATP by NHDF in culture, under conditions of hypoxia. The cells used were cultivated in flasks of normal human epidermal cells (NHDF) in a medium of DMEM with 10% fetal bovine serum, incubated at 37° C. in an atmosphere of 5% CO2, and 95% air until 80% confluent. On Day 1, a first measure of the level of ATP was determined on the non-treated, non-stressed NHDF. Two sets of six duplicates were 15 pretreated for 24 hours with 0.05% ribose or not treated as control. At Day 2, before the induction of hypoxia, one set of treated and control cells was harvested to measure the level of ATP. The cells of the second set were suspended, the medium renewed with DMEM with 10% fetal bovine serum with HEPES buffer in order to maintain the pH within physiological conditions during hypoxia and with EDTA in order to prevent the agglutination of the cells. The cells were held in an incubator held at 37° C., in which the atmosphere had been previously replaced by nitrogen. The cells were incubated for six hours in a condition of severe hypoxia (oxygen<2%) in the presence of 0.05% D-ribose versus the non-treated control. Recovery of the cells and measurement of the ATP was followed in the treated and control cells. […]

## O=C[C@H](O)[C@H](O)[C@H](O)CO [D-ribose]
[1]
  augmentation of cytoplasmic respiration over control: 37%
  augmentation of mitochondrial respiration over control: 31%
[2]
  recovery of the ATP levels, of the base levels: about 19%
